Data as given in US10544153B2, “Benzoic acid, benzoic acid derivatives and heteroaryl carboxylic acid conjugates of oxycodone, prodrugs, methods of making and use thereof” (KemPharm, Inc., priority 2014, dated 2020).

Assays:
[1] = Tamper resistance: percent of OC released under tampering conditions, LC-MS/MS; assay type: physicochemical; settings: RT
Procedure: Effective abuse deterrent forms of drugs of abuse can also be resistant to chemical tampering. The prodrugs in the present technology also impart this characteristic. Several common tampering scenarios were employed and percent of OC released were determined by liquid chromatography with tandem mass spectrometry (LC-MS/MS). The results as shown in Table 7 indicated a very high degree of tamper resistance in the example OC prodrugs, releasing little to no OC.

[2] = Intranasal PK in rats (Table 4); settings: title: oxymorphone released (released oxycodone)
[3] = Oral PK in rats: plasma concentrations of oxymorphone by LC-MS/MS; settings: oxymorphone released
[4] = Oral PK in rats: plasma concentrations of released oxycodone by LC-MS/MS
[5] = Intranasal PK in rats: plasma concentrations of released oxymorphone by LC-MS/MS
[6] = equivalent to 2 mg/kg freebase oxycodone
[7] = conjugate equivalent to 2 mg/kg freebase oxycodone
[8] = Table 6, equivalent to 2 mg/kg freebase oxycodone
[9] = Table 6, relative to oxycodone (OC)

For `COc1ccc(C(=O)OC2=CC[C@@]3(O)[C@H]4Cc5ccc(OC)c6c5[C@@]3(CCN4C)[C@H]2O6)cc1` [Conjugate 4-MeO-Bz-OC], the “percent of OC released” value ([1]; 1N HCl, 1 hour) was less than 1%, the “percent of OC released” value ([1]; 5% Bicarbonate, 1 hour) was less than 1% and the “percent of OC released” value ([1]; Water, 1 hour) was 0%. For the same compound, the “percent of OC released” value ([1]; Water, 24 hours) was less than 1%, the Cmax [2, 6] was 949.4 ng/mL and the tmax [2, 6] was 4.98 min. For the same compound, the “%-Cmax of OC” value ([2]; relative to oxycodone (OC)) was 48%, the “%-tmax of OC” value ([2]; relative to oxycodone (OC)) was 100% and the AUC [3, 7] was 6.7 ng·h/mL. The Cmax [3, 7] was 4.7 ng/mL, the tmax [3, 7] was 15 min and the “%-AUC of OC” value ([3]; relative to oxycodone (OC)) was 51%. The “%-Cmax of OC” value ([3]; relative to oxycodone (OC)) was 63%, the “%-tmax of OC” value ([3]; relative to oxycodone (OC)) was 83% and the AUC [4, 7] was 55.5 ng·h/mL. For the same compound, the Cmax [4, 7] was 28.5 ng/mL, the tmax [4, 7] was 15 min and the “%-AUC of OC” value ([4]; relative to oxycodone (OC)) was 59%. For the same compound, the “%-Cmax of OC” value ([4]; relative to oxycodone (OC)) was 61%, the “%-tmax of OC” value ([4]; relative to oxycodone (OC)) was 33% and the AUC [5, 8] was 7.2 ng·h/mL. For the same compound, the Cmax [5, 8] was 9.4 ng/mL, the tmax [5, 8] was 22 min and the “%-AUC of OC” value [5, 9] was 65%. For the same compound, the “%-Cmax of OC” value [5, 9] was 60% and the “%-tmax of OC” value [5, 9] was 105%.
